ChEMBL document CHEMBL1201862, “PubChem BioAssay data set” (2004)
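Tested at 5 concentrations; 48 h exposure; 96-well plates; endpoints linearly interpolated, else capped at highest concentration. At the GI50, growth is halved.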 Calls of active or inactive are those of the source. Rule as the data show it: active = GI50 up to about 1.1 µM and inactive = higher.

What was measured:
Experiment in all cases: growth of human tumour cells (NCI), 48 h
EKVX = tested on: EKVX
COLO 205 = tested on: COLO 205
MDA-N = tested on: MDA-N
RXF 393 = tested on: RXF 393
UACC-62 = tested on: UACC-62
OVCAR-8 = tested on: OVCAR-8
CAKI-1 = tested on: CAKI-1
NCI-H23 = tested on: NCI-H23
SF-268 = tested on: SF-268
SK-MEL-5 = tested on: SK-MEL-5
A498 = tested on: A498
T47D = tested on: T47D
MOLT-4 = tested on: MOLT-4
U-251 = tested on: U-251
MDA-MB-435 = tested on: MDA-MB-435
NCI/ADR-RES = tested on: NCI/ADR-RES
OVCAR-3 = tested on: OVCAR-3
MDA-MB-231 = tested on: MDA-MB-231
KM12 = tested on: KM12
HOP-92 = tested on: HOP-92

Q: How did the GI50 (EKVX) turn out when `CN(C)C(n1cc2c(c1)-c1ccc(Cl)cc1C(c1ccccc1F)=NC2)n1cc2c(c1)-c1ccc(Cl)cc1C(c1ccccc1F)=NC2` was run?
A: > 100 µM (inactive)

Q: And the GI50 (COLO 205)?
A: > 100 µM (inactive)

Q: What about the GI50 (MDA-N) of the same compound?
A: 18.4 µM (inactive)

Q: And the GI50 (RXF 393)?
A: 20.2 µM (inactive)

Q: What about the GI50 (UACC-62) of the same compound?
A: > 100 µM (inactive)

Q: And the GI50 (OVCAR-8)?
A: > 100 µM (inactive)

Q: And the GI50 (CAKI-1)?
A: > 100 µM (inactive)

Q: What about the GI50 (NCI-H23) of the same compound?
A: 3.31 µM (inactive)

Q: And the GI50 (SF-268)?
A: 36 µM (inactive)

Q: And the GI50 (SK-MEL-5)?
A: > 100 µM (inactive)

Q: What about the GI50 (A498) of the same compound?
A: 8.17 µM (inactive)

Q: And the GI50 (T47D)?
A: 38.4 µM (inactive)

Q: What about the GI50 (MOLT-4) of the same compound?
A: > 100 µM (inactive)

Q: And the GI50 (U-251)?
A: > 100 µM (inactive)

Q: What about the GI50 (MDA-MB-435) of the same compound?
A: > 100 µM (inactive)

Q: And the GI50 (NCI/ADR-RES)?
A: > 100 µM (inactive)

Q: And the GI50 (OVCAR-3)?
A: 87.5 µM (inactive)

Q: What about the GI50 (MDA-MB-231) of the same compound?
A: > 100 µM (inactive)

Q: For `COc1ccc(P2(=S)Oc3ccccc3-c3ccccc3O2)cc1`, which GI50 (KM12) is on record?
A: 0.499 µM (active)

Q: And the GI50 (COLO 205)?
A: 0.343 µM (active)

Q: And the GI50 (MDA-N)?
A: 0.147 µM (active)

Q: And the GI50 (UACC-62)?
A: 0.733 µM (active)

Q: What about the GI50 (OVCAR-8) of the same compound?
A: 0.802 µM (active)

Q: What about the GI50 (CAKI-1) of the same compound?
A: 0.271 µM (active)

Q: What about the GI50 (NCI-H23) of the same compound?
A: 0.579 µM (active)

Q: And the GI50 (SF-268)?
A: 1.5 µM (inactive)

Q: And the GI50 (SK-MEL-5)?
A: 0.365 µM (active)

Q: And the GI50 (A498)?
A: 0.306 µM (active)

Q: What about the GI50 (T47D) of the same compound?
A: 36.1 µM (inactive)

Q: And the GI50 (MOLT-4)?
A: 0.437 µM (active)

Q: What about the GI50 (U-251) of the same compound?
A: 0.429 µM (active)

Q: And the GI50 (HOP-92)?
A: 4.18 µM (inactive)

Q: And the GI50 (MDA-MB-435)?
A: 0.144 µM (active)

Q: What about the GI50 (NCI/ADR-RES) of the same compound?
A: 0.902 µM (active)

Q: And the GI50 (OVCAR-3)?
A: 0.226 µM (active)

Q: What about the GI50 (MDA-MB-231) of the same compound?
A: 0.439 µM (active)

Q: How did the GI50 (KM12) turn out when `O=c1oc2ccc3ccccc3c2cc1-c1cn2ccccc2n1` was run?
A: 57.7 µM (inactive)

Q: And the GI50 (EKVX)?
A: 30.5 µM (inactive)

Q: What about the GI50 (COLO 205) of the same compound?
A: > 100 µM (inactive)

Q: What about the GI50 (MDA-N) of the same compound?
A: > 100 µM (inactive)

Q: And the GI50 (RXF 393)?
A: > 100 µM (inactive)

Q: And the GI50 (UACC-62)?
A: > 100 µM (inactive)

Q: What about the GI50 (OVCAR-8) of the same compound?
A: 51.3 µM (inactive)

Q: What about the GI50 (CAKI-1) of the same compound?
A: 11.8 µM (inactive)

Q: What about the GI50 (NCI-H23) of the same compound?
A: > 100 µM (inactive)

Q: And the GI50 (SF-268)?
A: 80.5 µM (inactive)

Q: What about the GI50 (SK-MEL-5) of the same compound?
A: > 100 µM (inactive)

Q: What about the GI50 (T47D) of the same compound?
A: > 100 µM (inactive)

Q: What about the GI50 (MOLT-4) of the same compound?
A: > 100 µM (inactive)

Q: And the GI50 (U-251)?
A: 24.2 µM (inactive)

Q: What about the GI50 (HOP-92) of the same compound?
A: 90.6 µM (inactive)

Q: What about the GI50 (MDA-MB-435) of the same compound?
A: > 100 µM (inactive)

Q: And the GI50 (NCI/ADR-RES)?
A: > 100 µM (inactive)

Q: And the GI50 (OVCAR-3)?
A: > 100 µM (inactive)

Q: What about the GI50 (MDA-MB-231) of the same compound?
A: 24.2 µM (inactive)

Q: For `O=[N+]([O-])C(C(Cl)=C(Cl)Cl)=C(N1CCCCC1)N1CCCCC1`, which GI50 (KM12) is on record?
A: > 100 µM (inactive)

Q: What about the GI50 (EKVX) of the same compound?
A: > 100 µM (inactive)

Q: And the GI50 (COLO 205)?
A: > 100 µM (inactive)

Q: What about the GI50 (MDA-N) of the same compound?
A: 68.2 µM (inactive)

Q: And the GI50 (RXF 393)?
A: 63.1 µM (inactive)

Q: What about the GI50 (UACC-62) of the same compound?
A: > 100 µM (inactive)

Q: And the GI50 (OVCAR-8)?
A: > 100 µM (inactive)

Q: And the GI50 (CAKI-1)?
A: 58.6 µM (inactive)

Q: And the GI50 (NCI-H23)?
A: > 100 µM (inactive)

Q: And the GI50 (SF-268)?
A: > 100 µM (inactive)

Q: And the GI50 (SK-MEL-5)?
A: > 100 µM (inactive)

Q: And the GI50 (A498)?
A: > 100 µM (inactive)

Q: And the GI50 (T47D)?
A: 45.6 µM (inactive)

Q: What about the GI50 (MOLT-4) of the same compound?
A: 33.7 µM (inactive)

Q: And the GI50 (U-251)?
A: > 100 µM (inactive)

Q: And the GI50 (NCI/ADR-RES)?
A: > 100 µM (inactive)

Q: What about the GI50 (OVCAR-3) of the same compound?
A: 62.2 µM (inactive)

Q: What about the GI50 (MDA-MB-231) of the same compound?
A: > 100 µM (inactive)

Q: With `Nc1c(C(=O)O)nnc2cc(Cl)ccc12` as the compound, how does the GI50 (KM12) read?
A: > 100 µM (inactive)

Q: And the GI50 (EKVX)?
A: > 100 µM (inactive)

Q: And the GI50 (COLO 205)?
A: > 100 µM (inactive)

Q: And the GI50 (MDA-N)?
A: > 100 µM (inactive)

Q: And the GI50 (UACC-62)?
A: 32 µM (inactive)

Q: And the GI50 (OVCAR-8)?
A: > 100 µM (inactive)

Q: What about the GI50 (CAKI-1) of the same compound?
A: > 100 µM (inactive)

Q: And the GI50 (NCI-H23)?
A: > 100 µM (inactive)

Q: And the GI50 (SF-268)?
A: > 100 µM (inactive)

Q: What about the GI50 (SK-MEL-5) of the same compound?
A: > 100 µM (inactive)

Q: And the GI50 (A498)?
A: 85.3 µM (inactive)

Q: What about the GI50 (T47D) of the same compound?
A: > 100 µM (inactive)

Q: And the GI50 (MOLT-4)?
A: > 100 µM (inactive)

Q: And the GI50 (U-251)?
A: > 100 µM (inactive)

Q: And the GI50 (MDA-MB-435)?
A: > 100 µM (inactive)

Q: What about the GI50 (NCI/ADR-RES) of the same compound?
A: > 100 µM (inactive)

Q: What about the GI50 (OVCAR-3) of the same compound?
A: > 100 µM (inactive)

Q: What about the GI50 (MDA-MB-231) of the same compound?
A: > 100 µM (inactive)

Q: With `O=C(Nc1nnc(-c2ccccc2)o1)C(SC(=S)N1CCCC1)c1ccccc1` (stereo unspecified) as the compound, how does the GI50 (KM12) read?
A: 32.8 µM (inactive)

Q: What about the GI50 (EKVX) of the same compound?
A: 22.3 µM (inactive)

Q: And the GI50 (COLO 205)?
A: 37.2 µM (inactive)

Q: What about the GI50 (MDA-N) of the same compound?
A: 32.1 µM (inactive)

Q: And the GI50 (RXF 393)?
A: 40.3 µM (inactive)

Q: And the GI50 (OVCAR-8)?
A: 32 µM (inactive)

Q: What about the GI50 (CAKI-1) of the same compound?
A: 29.9 µM (inactive)

Q: And the GI50 (NCI-H23)?
A: 24.3 µM (inactive)

Q: And the GI50 (SK-MEL-5)?
A: 17.8 µM (inactive)

Q: What about the GI50 (A498) of the same compound?
A: 27.1 µM (inactive)

Q: And the GI50 (T47D)?
A: 46.8 µM (inactive)

Q: What about the GI50 (MOLT-4) of the same compound?
A: 5 µM (inactive)

Q: And the GI50 (U-251)?
A: 23.3 µM (inactive)

Q: What about the GI50 (MDA-MB-435) of the same compound?
A: 29.7 µM (inactive)

Q: And the GI50 (NCI/ADR-RES)?
A: 6.67 µM (inactive)

Q: And the GI50 (OVCAR-3)?
A: 23.5 µM (inactive)

Q: What about the GI50 (MDA-MB-231) of the same compound?
A: 39 µM (inactive)

Q: `CC(NCc1c(O)ccc2c(-c3ccccc3)cc(=O)oc12)C(=O)O` (stereo unspecified) was tested. Which GI50 (KM12) did it give?
A: > 100 µM (inactive)

Q: What about the GI50 (EKVX) of the same compound?
A: > 100 µM (inactive)

Q: What about the GI50 (COLO 205) of the same compound?
A: > 100 µM (inactive)

Q: What about the GI50 (MDA-N) of the same compound?
A: > 100 µM (inactive)

Q: And the GI50 (RXF 393)?
A: > 100 µM (inactive)

Q: And the GI50 (UACC-62)?
A: > 100 µM (inactive)

Q: What about the GI50 (OVCAR-8) of the same compound?
A: > 100 µM (inactive)

Q: What about the GI50 (CAKI-1) of the same compound?
A: > 100 µM (inactive)

Q: And the GI50 (NCI-H23)?
A: > 100 µM (inactive)

Q: And the GI50 (SF-268)?
A: > 100 µM (inactive)

Q: And the GI50 (SK-MEL-5)?
A: > 100 µM (inactive)

Q: And the GI50 (T47D)?
A: > 100 µM (inactive)

Q: And the GI50 (MOLT-4)?
A: > 100 µM (inactive)

Q: And the GI50 (U-251)?
A: > 100 µM (inactive)

Q: And the GI50 (HOP-92)?
A: 86.1 µM (inactive)

Q: And the GI50 (MDA-MB-435)?
A: > 100 µM (inactive)

Q: What about the GI50 (NCI/ADR-RES) of the same compound?
A: > 100 µM (inactive)

Q: And the GI50 (OVCAR-3)?
A: > 100 µM (inactive)

Q: What about the GI50 (MDA-MB-231) of the same compound?
A: > 100 µM (inactive)

Q: Which results are given for `Oc1cc(-c2cccc(Cl)c2)nc2cc3c(cc12)OCO3`?
A: GI50 (KM12): 0.24 µM (active); GI50 (COLO 205): 1.85 µM (inactive); GI50 (MDA-N): 0.0255 µM (active); GI50 (UACC-62): 0.201 µM (active); GI50 (OVCAR-8): 0.647 µM (active); GI50 (NCI-H23): 0.951 µM (active); GI50 (SK-MEL-5): 0.13 µM (active); GI50 (A498): 0.371 µM (active); GI50 (T47D): 10.6 µM (inactive); GI50 (MOLT-4): 1.89 µM (inactive); GI50 (HOP-92): 0.951 µM (active); GI50 (MDA-MB-435): 0.0377 µM (active); GI50 (NCI/ADR-RES): 0.208 µM (active); GI50 (MDA-MB-231): 2.44 µM (inactive)
